The compounds below were run against T1, Human HDAC8 (Homo sapiens, UniProt Q9BY41) (assay: Biochemical HDAC enzymatic assay, HDAC8). Conditions: Table 1; incubation time 10 min.
T1 construct: full-length with a C-terminal His tag, MW=46.4 kDa; His tag (C); made in house; host or cells: baculovirus expression system
T1 sequence (Q9BY41 1-377): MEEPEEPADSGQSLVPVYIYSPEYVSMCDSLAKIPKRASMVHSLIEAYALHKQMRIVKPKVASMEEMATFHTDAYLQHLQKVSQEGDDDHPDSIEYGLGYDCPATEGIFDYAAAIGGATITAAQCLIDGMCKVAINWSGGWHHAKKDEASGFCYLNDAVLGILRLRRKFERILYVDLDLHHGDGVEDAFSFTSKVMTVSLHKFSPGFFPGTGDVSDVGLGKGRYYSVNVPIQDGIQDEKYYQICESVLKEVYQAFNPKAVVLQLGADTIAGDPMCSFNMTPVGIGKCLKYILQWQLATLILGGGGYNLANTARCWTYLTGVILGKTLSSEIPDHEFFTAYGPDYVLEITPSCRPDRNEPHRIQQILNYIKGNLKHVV
Protocol: Incubation time for HDAC1/2 is 120 min, and 10 min for other HDACs.
Human HDAC8 (GenBank Accession No. NM_018486), full-length with a C-terminal His tag, MW=46.4 kDa, was expressed in a baculovirus expression system.
(§1) • I. Compound handling: Testing compounds were dissolved in 100% DMSO to a specific concentration. The serial dilution was conducted by epMotion 5070 in DMSO. • II. HDAC reaction buffer: 50 mM Tris-HCl, pH8.0, 137 mM NaCl, 2.7 mM KCl, and 1 mM MgCl2, Added fresh: 1 mg/ml BSA, 1% DMSO. • III. Substrate: Fluorogenic HDAC General Substrate for HDAC1, 2, 3, 6, 10, 11 ans Sirt1, 2 and 3: Arg-His-Lys-Lys(Ac); HDAC8 only substrate: Arg-His-Lys(Ac)-Lys(Ac); Class2A Substrate (HDAC4, 5, 7 and 9): Acetyl-Lys(trifluoroacetyl)-AMC; Sirt5 substrate: Ac-Lys(succinyl)-AMC. • IV. General Reaction Procedure: (Standard IC50 determination) • a. Delivered 2× enzyme in wells of reaction plate except No Enzyme (No En) control wells. Add buffer in No En wells. • b. Delivered compounds in 100% DMSO into the enzyme mixture by Acoustic technology (Echo550; nanoliter range). Spin down and pre-incubation. • c. Delivered 2× Substrate Mixture (Fluorogenic HDAC Substrate and co-factor (500 μM of Nicotinamide adenine dinucleotide (NAD^+) in all Sirt assay) in all reaction wells to initiate the reaction. Spin and shake. • d. Incubated for 1-2 hr. at 30° C. with seal. • e. Added Developer with Trichostatin A (or TMP269 or NAD^+) to stop the reaction and to generate fluorescent color. • f. Fluorescence was read (excitatory, 360; emission, 460) using the EnVision Multilabel Plate Reader (Perkin Elmer) • g. Endpoint reading was taken for analysis after the development reaches plateau. • V. Data Analysis: The percentages of enzyme activity (relative to DMSO controls) and IC50 values were calculated using the GraphPad Prism 4 program based on a sigmoidal dose-response equation.
The inhibitory activities of HDAC of compounds of the invention were determined using biochemical HDAC assays. Compounds were tested at the indicated doses in the biochemical assays of HDAC1, HDAC2, HDAC3, HDAC4, HDAC5, HDAC6, HDAC7, HDAC8, HDAC9, HDAC10, or HDAC11 enzyme. The curve fit and IC50 values were calculated using the GraphPad Prism 4 program based on a sigmoidal dose-response equation.
as §1, with “[…]” for “μM”, “equation. […]” for “equation.”

Row | IC50 [nM] | SMILES
1 | > 20000 | Nc1ccc(-c2cccs2)cc1NC(=O)c1ccc(CN2C(=O)CCCC23CNC3)cc1 [Example 1, N-(2-amino-5-(thiophen-2-yl)phenyl)-4-((6-oxo-2,5-diazaspiro[3.5]nonan-5-yl)methyl)benzamide]
2 | > 20000 | Nc1ccc(-c2cccs2)cc1NC(=O)c1ccc(CN2C(=O)CCC23CCNCC3)cc1 [Example 2, N-(2-amino-5-(thiophen-2-yl)phenyl)-4-((2-oxo-1,8-diazaspiro[4.5]decan-1-yl)methyl)benzamide]
3 | > 10000 | Nc1cc(F)ccc1NC(=O)c1ccc(CN2C(=O)CCCC23CNC3)cc1 [Example 3, N-(2-amino-4-fluorophenyl)-4-((6-oxo-2,5-diazaspiro[3.5]nonan-5-yl)methyl)benzamide]
4 | > 20000 | CN1CCC2(CC1)CN(c1ccc(C(=O)Nc3cc(-c4cccs4)ccc3N)cn1)C(=O)O2 [Example 4, N-(2-amino-5-(thiophen-2-yl)phenyl)-6-(8-methyl-2-oxo-1-oxa-3,8-diazaspiro[4.5]decan-3-yl)nicotinamide]
5 | > 20000 | Nc1ccc(-c2ccc(F)cc2)cc1NC(=O)c1ccc(N2CC3(CCOCC3)OC2=O)nc1 [Example 5, N-(4-amino-4′-fluoro-[1,1′-biphenyl]-3-yl)-6-(2-oxo-1,8-dioxa-3-azaspiro[4.5]decan-3-yl)nicotinamide]
6 | > 20000 | Nc1ccc(-c2cccs2)cc1NC(=O)c1ccc(N2CC3(CCNCC3)CCC2=O)nc1 [Example 6, N-(2-amino-5-(thiophen-2-yl)phenyl)-6-(3-oxo-2,9-diazaspiro[5.5]undecan-2-yl)nicotinamide]

Same assay, conditions: Table 2; incubation time 10 min

Row | IC50 [nM] | SMILES
7 | 400 | O=C(NO)c1ccc(CN2C(=O)c3ccccc3C23OCCO3)cc1 [Compound Example 8, N-hydroxy-4-((3-oxospiro[isoindoline-1,2′-[1,3]dioxolan]-2-yl)methyl)benzamide]
8 | 1920 | O=C(NO)c1ccc(CN2C(=O)C3(CCOC3)c3ccccc32)cc1 (centres unmarked) [Compound Example 9]
9 | 710 | O=C(NO)c1ccc(CN2C(=O)c3ccccc3C23CCNCC3)cc1 [Compound Example 10, N-hydroxy-4-((3-oxospiro[isoindoline-1,4′-piperidin]-2-yl)methyl)benzamide]
10 | 520 | CN(C)C(=O)N1CCC2(CC1)c1ccccc1C(=O)N2Cc1ccc(C(=O)NO)cc1 [Compound Example 11, 2-(4-(hydroxycarbamoyl)benzyl)-N,N-dimethyl-3-oxospiro[isoindoline-1,4′-piperidine]-1′-carboxamide]
11 | 1200 | O=C(NO)c1ccc(CN2C(=O)c3ccccc3C23CCN(C2CC2)CC3)cc1 [Compound Example 12, 4-((1′-cyclopropyl-3-oxospiro[isoindoline-1,4′-piperidin]-2-yl)methyl)-N-hydroxybenzamide]
